Measured values taken from patent US6030960A, “Method of treating hepatitis virus infections” (priority 1998, dated 2000).
Several values for one entry are separate records, joined by “and”; a condition that tells them apart may be missing. Equal entries are not always repeated.

Key:
Type in all cases: cell-based
[1] = Cytotoxicity of alkyl lipids, neutral red dye uptake (Table 1); conditions: human, hep-g2 cells
Source text: (§1) Initially, evaluations of the alkyl lipids were done to determine whether the compounds were cytotoxic to the cells at concentrations having anti-HBV activity. The assay methodology is szt forth in Korba and Germ, Antiviral Res., 19, 55-70 (1992), incorporated by reference herein. Briefly, these cell cytotoxicity evaluations were done in 96-well plates seeded with HEP-G2 cell monolayers. The hepatoblastoma cell line HEP-G2 transfected with a plasmid carrying the gene that confers resistance to […] and four 5'-3' tandem copies of the Hepatitis B virus genome was obtained from Dr. George Acs. Proc. Natl. Acad. Sci. USA, 84, 1005-1009 (1987). Serial concentrations of compound were added to the RPMI-1640 growth medium and the growth medium was added to the 96-well plates containing the cell monolayers. The cells were incubated for a total of nine days at 37° C. The compound-containing medium was periodically replaced. Each compound was tested at four serial concentrations in triplicate. After nine days of treatment and incubation, 0.01% neutral red dye (Sigma, Inc.) was added to the overlay medium. Cell cytotoxicity was quantitated by measuring the average A510. Values in Table 1 represent the percentage of average A510 values (±standard deviation) relative to nine non-treated control wells.

[2] = system: Hepatitis B virus; assay: Anti-hepatitis B virus activity in HEP-G2 cells persistently infected with HBV (Table 2); conditions: 10 μM; for activity against HBV-induced virion DNA and HBeAg syntheses: in words; for activity at 10 µM: Hepatitis B virus, HepG2, 216 h, 9 days treatment
Protocol: HEP-G2 cells persistently infected with HBV were treated daily with fresh D-MEM containing 20% FBS and 10 μM compound. After 9 days incubation and treatment, the overlay medium was harvested to assay the quantity of Hepatitis B virus s antigen (HBsAg) and HBeAg by EIA (Abbott Laboratories). The overlay medium was diluted to levels of antigen in the linear range of the assay. Standard curves using dilutions of positive HBsAg and HBeAg controls were included in each assay. Virion DNA was assayed using the method set forth in Korba and Gerin, Antiviral Res., 19, 5,5-70 (1992), incorporated by reference herein. HBV DNA was extracted from the overlay medium containing virus particles and analyzed by a slot-blot hybridization technique using ^32 P-labelled 3.2 Kb Eco R1 HBV DNA fragment by comparisons to HBV standards present on nitrocellulose filters using an AMBIS beta scanner. EC90 values (90% effective concentration, i.e., drug concentration which induces a 90% decrease in the levels of HBV DNA replication intermediates in treated versus control cells) were calculated by linear regression analysis. The relative levels of HBsAg, HBeAg and virion DNA were calulated as a percentage of the average levels obtained from the untreated controls.

[3] = Cytotoxicity in HBV persistently infected human HEP G2 cells, neutral red dye uptake (Table 5); conditions: human, hep-g2 cells, Trial 2, read-out: % of Control Neutral Red Dye Uptake
Source text: as §1
An analysis was periormed to determine the cytotoxicity of the following compounds in human HEP-G2 cells persistently infected with HBV: CP-51, CP-49, CP-9, CP-126, lyso PAF and CP-7. 2'-3'-Dideoxycytidine (ddC) was used as a control in this cytotoxicity analysis. The toxicity analyses were performed in 96-well flat bottomed tissue culture plates following the same procedure set forth in Example 6 above. Each compound was tested at four concentrations, each in triplicate cultures. Uptake of neutral red dye was used to determine the relative level of toxicity. The absorbance of internalized dye at […] (A510) was used for the quantitative analysis.
Values are presented as a percentage of the average A510 values (± standard deviations) in ninz separate cultures of untreated cells maintained on the same 96-well plate as the test compounds. The percentage of dye uptake in the nine control cultures was 100±1.

[4] = system: Hepatitis B virus; assay: Effect of alkyl lipids on HBV replication in HBV persistently infected human HEP G2 cells (Table 6); conditions: for Intracellular HBV DNA, Mono (episomal 3.2-3.8 Kb HBV genomes) / Intracellular HBV DNA, RI (replication intermediates): nine days
Protocol: Cells were treated with a particular compound for nine days at 37° C. Analysis of intracellular HEIV DNA was done 24 hours following the ninth day of treatment. […] The levels of integrated HBV DNA in each cellular DNA preparation were used to calculate the levels of episomal 3.2-3.8 Kb HBV genomes (Mono) and HBV DNA replication intermediates (RI). A zero value indicates an undetectable level of HBV virion DNA. The sensitivity cut-off was 0.1 pg DNA/ml of culture medium.

[5] = system: Hepatitis B virus; assay: Effect on synthesis of antigen markers in persistently infected human HEP G2 cell cultures (Table 7); conditions: nine days; for activity at 10 µM: Hepatitis B virus, HepG2, 216 h
Protocol: Cells were treated with compound for nine days at 37° C. The overlay medium was harvested to measure levels of HBsAg, HBeAg and virion DNA. HBsAg and HBeAg were assayed by EIA (Abbott Laboratories). Virion DNA levels were measured as described in section B above.

[6] = read-out: Relative Level of HBeAg
[7] = read-out: Relative Level of HBsAg
[8] = read-out: Relative Level of Virion DNA

CCCCCCCCCCCCCCCCCC(=O)NCC(COP(=O)([O-])OCC[N+](C)(C)C)OC (centres unmarked) [CP-50]
cytotoxicity at 216 h, 30 µM [1]: 0% | cytotoxicity at 216 h, 100 µM [1]: 5% | viability at 216 h, 3 µM [1]: 97 ± 2% | viability at 216 h, 10 µM [1]: 99 ± 2% | viability at 216 h, 30 µM [1]: 100 ± 3% | viability at 216 h, 100 µM [1]: 95 ± 2% | activity against HBV-induced virion DNA and HBeAg syntheses [2]: no significant activity | activity at 10 µM [2, 6]: 93% | activity at 10 µM [2, 7]: 104% | activity at 10 µM [2, 8]: 88%

CCCCCCCCCCCCCCCC(=O)NCC(COP(=O)([O-])OCC[N+](C)(C)C)OC (centres unmarked) [CP-48]
cytotoxicity at 216 h, 30 µM [1]: 39% | viability at 216 h, 3 µM [1]: 102 ± 1% | viability at 216 h, 10 µM [1]: 97 ± 1% | viability at 216 h, 30 µM [1]: 61 ± 2% | viability at 216 h, 100 µM [1]: 24 ± 1% | activity against HBV-induced virion DNA and HBeAg syntheses [2]: no significant activity | activity at 10 µM [2, 6]: 88% | activity at 10 µM [2, 7]: 73% | activity at 10 µM [2, 8]: 96%

CCCCCCCCCCCCCCCCCCOCC(O)COP(=O)([O-])OCC[N+](C)(C)C (racemic) [lyso PAF, rac-3-octadecyloxy-2-hydroxy-1-propyl phosphocholine]
viability at 216 h, 3 µM ([3]; 3 μM): 98 ± 2% | viability at 216 h, 10 µM ([3]; 10 μM): 99 ± 1% | viability at 216 h, 30 µM ([3]; 30 μM): 98 ± 2% | viability at 216 h, 100 µM ([3]; 100 μM): 40 ± 6% | HBV Virion DNA ([4]; 0.1 μM, Day 0): 62 pg/ml Culture Medium and 60 pg/ml Culture Medium and 81 pg/ml Culture Medium and 57 pg/ml Culture Medium | HBV Virion DNA ([4]; 0.1 μM, Day 3): 77 pg/ml Culture Medium and 81 pg/ml Culture Medium and 70 pg/ml Culture Medium and 69 pg/ml Culture Medium | HBV Virion DNA ([4]; 0.1 μM, Day 6): 80 pg/ml Culture Medium and 79 pg/ml Culture Medium and 64 pg/ml Culture Medium and 88 pg/ml Culture Medium | HBV Virion DNA ([4]; 0.1 μM, Day 9): 84 pg/ml Culture Medium and 96 pg/ml Culture Medium and 67 pg/ml Culture Medium and 92 pg/ml Culture Medium | Intracellular HBV DNA, Mono (episomal 3.2-3.8 Kb HBV genomes) ([4]; 0.1 μM): 2.5 pg/μg Cell DNA and 2.1 pg/μg Cell DNA and 2.0 pg/μg Cell DNA | Intracellular HBV DNA, RI (replication intermediates) ([4]; 0.1 μM): 84 pg/μg Cell DNA and 96 pg/μg Cell DNA and 67 pg/μg Cell DNA and 71 pg/μg Cell DNA | HBV Virion DNA ([4]; 1 μM, Day 0): 52 pg/ml Culture Medium and 51 pg/ml Culture Medium and 63 pg/ml Culture Medium and 65 pg/ml Culture Medium | HBV Virion DNA ([4]; 1 μM, Day 3): 69 pg/ml Culture Medium and 61 pg/ml Culture Medium and 53 pg/ml Culture Medium | HBV Virion DNA ([4]; 1 μM, Day 6): 72 pg/ml Culture Medium and 79 pg/ml Culture Medium and 81 pg/ml Culture Medium | HBV Virion DNA ([4]; 1 μM, Day 9): 74 pg/ml Culture Medium and 83 pg/ml Culture Medium and 59 pg/ml Culture Medium and 88 pg/ml Culture Medium | Intracellular HBV DNA, Mono (episomal 3.2-3.8 Kb HBV genomes) ([4]; 1 μM): 2.6 pg/μg Cell DNA and 2.9 pg/μg Cell DNA and 2.4 pg/μg Cell DNA | Intracellular HBV DNA, RI (replication intermediates) ([4]; 1 μM): 74 pg/μg Cell DNA and 83 pg/μg Cell DNA and 59 pg/μg Cell DNA and 84 pg/μg Cell DNA | HBV Virion DNA ([4]; 10 μM, Day 0): 52 pg/ml Culture Medium and 62 pg/ml Culture Medium and 60 pg/ml Culture Medium and 68 pg/ml Culture Medium | HBV Virion DNA ([4]; 10 μM, Day 3): 65 pg/ml Culture Medium and 71 pg/ml Culture Medium and 51 pg/ml Culture Medium and 50 pg/ml Culture Medium | HBV Virion DNA ([4]; 10 μM, Day 6): 36 pg/ml Culture Medium and 34 pg/ml Culture Medium and 30 pg/ml Culture Medium and 32 pg/ml Culture Medium | HBV Virion DNA ([4]; 10 μM, Day 9, 0 = undetectable, cut-off 0.1 pg DNA/ml): 14 pg/ml Culture Medium and 18 pg/ml Culture Medium and 11 pg/ml Culture Medium and 13 pg/ml Culture Medium | Intracellular HBV DNA, Mono (episomal 3.2-3.8 Kb HBV genomes) ([4]; 10 μM): 2.0 pg/μg Cell DNA and 2.4 pg/μg Cell DNA and 2.6 pg/μg Cell DNA and 2.8 pg/μg Cell DNA | Intracellular HBV DNA, RI (replication intermediates) ([4]; 10 μM): 15 pg/μg Cell DNA and 22 pg/μg Cell DNA and 18 pg/μg Cell DNA and 21 pg/μg Cell DNA | Relative Level of HBeAg ([5]; 10 μM, 12960 min): 50 % of Untreated Control | Relative Level of HBsAg ([5]; 10 μM, 12960 min): 80 % of Untreated Control | Relative Level of Virion DNA ([5]; 10 μM, 12960 min): 15 % of Untreated Control | activity at 10 µM ([5]; read-out: Relative Level of HBeAg, 10 μM): 45% | activity at 10 µM ([5]; read-out: Relative Level of HBsAg, 10 μM): 78% | activity at 10 µM ([5]; read-out: Relative Level of Virion DNA, 10 μM): 13%
